Results as given in patent publication US20260297131A1, “COMPOSITIONS AND METHODS FOR PEPTIDE-BASED MODULATORS OF HUMAN PAPILLOMAVIRUS ONCOPROTEIN E6” (priority 2023, published 2026).
Several values for one entry are separate records, joined by “and”; a condition that tells them apart may be missing. Equal values may be shown once. Square brackets hold non-standard residues; d marks the D form. Peptide text beside a SMILES is read from it. * marks the point of attachment. Acetyl(9-fluorenyl) = O=C(CC1c2ccccc2-c2ccccc21)*; Anthracene1carbonyl = O=C(c1cccc2cc3ccccc3cc12)*; 2Nal = N[C@@H](Cc1ccc2ccccc2c1)C(=O)O; Gly(cPent) = N[C@H](C(=O)O)C1CCCC1; 1Naphthoyl = O=C(c1cccc2ccccc12)*; Ala(cPr) = N[C@@H](CC1CC1)C(=O)O; Hyp = O=C(O)[C@@H]1C[C@@H](O)CN1; hPhe = N[C@@H](CCc1ccccc1)C(=O)O; Gly(cBu) = N[C@H](C(=O)O)C1CCC1; Aad = N[C@@H](CCCC(=O)O)C(=O)O; Cba = N[C@@H](CC1CCC1)C(=O)O; Nva = CCC[C@H](N)C(=O)O; Aib = CC(C)(N)C(=O)O; Dha = C=C(N)C(=O)O

What was measured:
MBP-16E6 [1] = biological target: T1, MBP-16E6 (Human papillomavirus 16, UniProt P03126, C104S/C118S/C147S/C87S); conditions: for Ratio to wild-type: N-terminal modified peptides, KD of WT divided by KD
T1 sequence (P03126 whole entry C104S/C118S/C147S/C87S, looked up): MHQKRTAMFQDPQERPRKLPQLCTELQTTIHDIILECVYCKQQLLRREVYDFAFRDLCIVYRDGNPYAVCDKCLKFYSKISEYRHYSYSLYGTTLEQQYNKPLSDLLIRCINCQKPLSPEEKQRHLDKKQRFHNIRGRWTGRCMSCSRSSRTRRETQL

MBP-16E6 [2] = biological target: T1, MBP-16E6; assay: biochemical
[3] = KD, nM, TABLE 2B, BLI competition
[4] = KD in nM, N-terminal modified peptides, competition mode, N = 2 or 3, SEM of curve fitting

For `CC[C@H](C)[C@H](NC(=O)CC1c2ccccc2-c2ccccc21)C(=O)N1CCC[C@H]1C(=O)N[C@@H](CCC(=O)O)C(=O)N[C@@H](CO)C(=O)N[C@@H](C)C(=O)N[C@@H](CCC(=O)O)C(=O)N[C@@H](CC(C)C)C(=O)N[C@H](C(=O)N[C@@H](C)C(=O)N[C@@H](CCC(N)=O)C(=O)N[C@@H](CCC(=O)O)C(=O)N[C@@H](C)C(=O)N[C@@H](C)C(=O)NCC(=O)N[C@@H](CCC(=O)O)C(=O)N[C@@H](CCC(=O)O)C(=O)N[C@@H](CCCNC(=N)N)C(=O)N[C@@H](CCCNC(=N)N)C(=O)N[C@@H](C)C(=O)N[C@@H](C)C(=O)N[C@@H](CCCCNC(=O)c1cccc2cc3ccccc3cc12)C(N)=O)[C@@H](C)O` [6′-3L3A] ({Acetyl(9-fluorenyl)}-IPESAELTAQEAAGEERRAAK(Anthracene1carbonyl)-NH2), the “KD, nM” value (MBP-16E6 [1]; TABLE 2B, BLI competition) was “n.b”.

Work on `CC[C@H](C)[C@H](NC(=O)CC1c2ccccc2-c2ccccc21)C(=O)N1CCC[C@H]1C(=O)N[C@@H](CCC(=O)O)C(=O)N[C@@H](CO)C(=O)N[C@@H](CO)C(=O)N[C@@H](CCC(=O)O)C(=O)N[C@@H](CC(C)C)C(=O)N[C@H](C(=O)N[C@@H](CC(C)C)C(=O)N[C@@H](CCC(N)=O)C(=O)N[C@@H](CCC(=O)O)C(=O)N[C@@H](CC(C)C)C(=O)N[C@@H](CC(C)C)C(=O)NCC(=O)N[C@@H](CCC(=O)O)C(=O)N[C@@H](CCC(=O)O)C(=O)N[C@@H](CCCNC(=N)N)C(=O)N[C@@H](CCCNC(=N)N)C(=O)N[C@@H](C)C(=O)N[C@@H](C)C(=O)N[C@@H](CCCCNC(=O)CC1c2ccccc2-c2ccccc21)C(N)=O)[C@@H](C)O` [Entry 2] ({Acetyl(9-fluorenyl)}-IPESSELTLQELLGEERRAAK(Acetyl(9-fluorenyl))-NH2) yielded a Kd (MBP-16E6 [2]; [3]) of 8.6 ± 3.2 nM.

For `CC[C@H](C)[C@H](NC(=O)CC1c2ccccc2-c2ccccc21)C(=O)N1CCC[C@H]1C(=O)N[C@@H](CCC(=O)O)C(=O)N[C@@H](CO)C(=O)N[C@@H](CO)C(=O)N[C@@H](CCC(=O)O)C(=O)N[C@@H](CC(C)C)C(=O)N[C@H](C(=O)N[C@@H](CC(C)C)C(=O)N[C@@H](CCC(N)=O)C(=O)N[C@@H](CCC(=O)O)C(=O)N[C@@H](CC(C)C)C(=O)N[C@@H](CC(C)C)C(=O)NCC(=O)N[C@@H](CCC(=O)O)C(=O)N[C@@H](CCC(=O)O)C(=O)N[C@@H](CCCNC(=N)N)C(=O)N[C@@H](CCCNC(=N)N)C(=O)N[C@@H](C)C(=O)N[C@@H](C)C(=O)N[C@@H](CCCCNC(=O)c1cccc2ccccc12)C(N)=O)[C@@H](C)O` [Entry 4] ({Acetyl(9-fluorenyl)}-IPESSELTLQELLGEERRAAK(1Naphthoyl)-NH2), the Kd (MBP-16E6 [2]; [3]) was 47 ± 7.4 nM.

Work on `CC[C@H](C)[C@H](NC(=O)CC1c2ccccc2-c2ccccc21)C(=O)N1CCC[C@H]1C(=O)N[C@@H](CCC(=O)O)C(=O)N[C@@H](CO)C(=O)N[C@@H](CO)C(=O)N[C@@H](CCC(=O)O)C(=O)N[C@@H](CC(C)C)C(=O)N[C@H](C(=O)N[C@@H](CC(C)C)C(=O)N[C@@H](CCC(N)=O)C(=O)N[C@@H](CCC(=O)O)C(=O)N[C@@H](CC(C)C)C(=O)N[C@@H](CC(C)C)C(=O)NCC(=O)N[C@@H](CCC(=O)O)C(=O)N[C@@H](CCC(=O)O)C(=O)N[C@@H](CCCNC(=N)N)C(=O)N[C@@H](CCCNC(=N)N)C(=O)N[C@@H](C)C(=O)N[C@@H](C)C(=O)N[C@@H](CCCCNC(=O)c1cccc2cc3ccccc3cc12)C(N)=O)[C@@H](C)O` [Entry 6] ({Acetyl(9-fluorenyl)}-IPESSELTLQELLGEERRAAK(Anthracene1carbonyl)-NH2) yielded a Kd (MBP-16E6 [2]; [3]) of 3.7 ± 1.9 nM.

In the case of `CC[C@H](C)[C@H](N)C(=O)N1CCC[C@H]1C(=O)N[C@@H](CCC(=O)O)C(=O)N[C@@H](CO)C(=O)N[C@@H](CO)C(=O)N[C@@H](CCC(=O)O)C(=O)N[C@@H](CC(C)C)C(=O)N[C@H](C(=O)N[C@@H](CC(C)C)C(=O)N[C@@H](CCC(N)=O)C(=O)N[C@@H](CCC(=O)O)C(=O)N[C@@H](CC(C)C)C(=O)N[C@@H](CC(C)C)C(=O)NCC(=O)N[C@@H](CCC(=O)O)C(=O)N[C@@H](CCC(=O)O)C(=O)N[C@@H](CCCNC(=N)N)C(=O)N[C@@H](CCCNC(=N)N)C(N)=O)[C@@H](C)O` [Peptide 1], the Kd (MBP-16E6 [2]; [3]) is reported as 2450 ± 513 nM and the Kd (MBP-16E6 [2]; competition KD, BLI competition with 1-biotin, 30 nM MBP-16E6) is reported as 2300 nM and 2400 nM.

`C=C(NC(=O)[C@H](C)NC(=O)[C@H](C)NC(=O)[C@H](CCC(=O)O)NC(=O)[C@H](CCC(N)=O)NC(=O)[C@H](C)NC(=O)[C@@H](NC(=O)[C@H](CC(C)C)NC(=O)[C@H](CCC(=O)O)NC(=O)[C@H](C)NC(=O)[C@H](CO)NC(=O)[C@H](CCC(N)=O)NC(=O)[C@@H]1CCCN1C(=O)[C@@H](NC(=O)CC1c2ccccc2-c2ccccc21)[C@@H](C)CC)[C@@H](C)O)C(=O)N[C@@H](CCCNC(=N)N)C(=O)N[C@@H](CCCNC(=N)N)C(=O)N[C@@H](CCCCN)C(=O)N[C@@H](CCCCN)C(=O)N[C@@H](CCCCNC(=O)c1cccc2cc3ccccc3cc12)C(N)=O` [Peptide 13-3L3A] ({Acetyl(9-fluorenyl)}-IPQSAELTAQEAA[Dha]RRKKK(Anthracene1carbonyl)-NH2) was tested, and the “KD in nM” value (MBP-16E6 [1]; TABLE 2C, BLI competition) was “n.b” and the “Apparent Ki in nM” value (MBP-16E6 [1]; TABLE 2E, competition with immobilized 1-Biotin following 30 min incubation with 16E6) was “n.b”.

With `CC[C@H](C)[C@H](NC(=O)C1CCc2ccccc21)C(=O)N1CCC[C@H]1C(=O)N[C@@H](CCC(=O)O)C(=O)N[C@@H](CO)C(=O)N[C@@H](CO)C(=O)N[C@@H](CCC(=O)O)C(=O)N[C@@H](CC(C)C)C(=O)N[C@H](C(=O)N[C@@H](CC(C)C)C(=O)N[C@@H](CCC(N)=O)C(=O)N[C@@H](CCC(=O)O)C(=O)N[C@@H](CC(C)C)C(=O)N[C@@H](CC(C)C)C(=O)NCC(=O)N[C@@H](CCC(=O)O)C(=O)N[C@@H](CCC(=O)O)C(=O)N[C@@H](CCCNC(=N)N)C(=O)N[C@@H](CCCNC(=N)N)C(N)=O)[C@@H](C)O` (stereo partly shown) [Peptide N3] the “decrease in binding by change of terminal group” value (MBP-16E6 [1]; relative to fluorene-modified N1 / parent modification) was ~ 42 fold.

`CC[C@H](C)[C@H](NC(=O)c1c(O)cccc1O)C(=O)N1CCC[C@H]1C(=O)N[C@@H](CCC(=O)O)C(=O)N[C@@H](CO)C(=O)N[C@@H](CO)C(=O)N[C@@H](CCC(=O)O)C(=O)N[C@@H](CC(C)C)C(=O)N[C@H](C(=O)N[C@@H](CC(C)C)C(=O)N[C@@H](CCC(N)=O)C(=O)N[C@@H](CCC(=O)O)C(=O)N[C@@H](CC(C)C)C(=O)N[C@@H](CC(C)C)C(=O)NCC(=O)N[C@@H](CCC(=O)O)C(=O)N[C@@H](CCC(=O)O)C(=O)N[C@@H](CCCNC(=N)N)C(=O)N[C@@H](CCCNC(=N)N)C(N)=O)[C@@H](C)O` [Peptide N15] gave a Kd (MBP-16E6 [2]; [4]) of 767 ± 295 nM and a Ratio to wild-type (MBP-16E6 [1]) of 3.1.

With `CC[C@H](C)[C@H](NC(=O)c1c(F)c(F)c(F)c(F)c1F)C(=O)N1CCC[C@H]1C(=O)N[C@@H](CCC(=O)O)C(=O)N[C@@H](CO)C(=O)N[C@@H](CO)C(=O)N[C@@H](CCC(=O)O)C(=O)N[C@@H](CC(C)C)C(=O)N[C@H](C(=O)N[C@@H](CC(C)C)C(=O)N[C@@H](CCC(N)=O)C(=O)N[C@@H](CCC(=O)O)C(=O)N[C@@H](CC(C)C)C(=O)N[C@@H](CC(C)C)C(=O)NCC(=O)N[C@@H](CCC(=O)O)C(=O)N[C@@H](CCC(=O)O)C(=O)N[C@@H](CCCNC(=N)N)C(=O)N[C@@H](CCCNC(=N)N)C(N)=O)[C@@H](C)O` [Peptide N16] the Kd (MBP-16E6 [2]; [4]) was 228 ± 74 nM and the Ratio to wild-type (MBP-16E6 [1]) was 10.7.

`C=C(NC(=O)[C@H](CCC)NC(=O)[C@H](CC1CCC1)NC(=O)[C@H](CCC(=O)O)NC(=O)CNC(=O)[C@H](CCC)NC(=O)[C@@H]1C[C@@H](O)CN1C(=O)[C@H](CCC)NC(=O)[C@@H](N)CCCC(=O)O)C(=O)N[C@@H](CCC(=O)O)C(=O)N[C@@H](CCC(=O)O)C(=O)N[C@@H](CCCNC(=N)N)C(N)=O` [peptide 3] (H-[Aad][Nva][Hyp][Nva]GE[Cba][Nva][Dha]EER-NH2) gave a Ki (MBP-16E6 [2]) of 466 nM.

Work on `CC[C@H](C)[C@H](NC(=O)CC1c2ccccc2-c2ccccc21)C(=O)N1CCC[C@H]1C(=O)N[C@@H](CCC(=O)O)C(=O)N[C@@H](CO)C(=O)N[C@@H](C)C(=O)N[C@@H](CCC(=O)O)C(=O)N[C@@H](CC(C)C)C(=O)N[C@H](C(=O)N[C@@H](CC(C)C)C(=O)N[C@@H](CCC(N)=O)C(=O)N[C@@H](CCC(=O)O)C(=O)N[C@@H](CC(C)C)C(=O)N[C@@H](CC(C)C)C(=O)NCC(=O)N[C@@H](CCC(=O)O)C(=O)N[C@@H](CCC(=O)O)C(=O)N[C@@H](CCCNC(=N)N)C(=O)N[C@@H](CCCNC(=N)N)C(=O)N[C@@H](C)C(=O)N[C@@H](C)C(=O)N[C@@H](CCCCNC(=O)c1cccc2cc3ccccc3cc12)C(N)=O)[C@@H](C)O` [peptide 6′] ({Acetyl(9-fluorenyl)}-IPESAELTLQELLGEERRAAK(Anthracene1carbonyl)-NH2) yielded a Kd (MBP-16E6 [2]; KD in nM, TABLE 2C, BLI competition) of 1.4 ± 0.6 nM, a Kd (MBP-16E6 [2]; [3]) of 2.7 ± 1.2 nM and a Kd (MBP-16E6 [2]; competition KD, BLI competition, values in text) of 2.7 nM.

With `C=C(NC(=O)[C@H](CC1CC1)NC(=O)[C@H](CCc1ccccc1)NC(=O)[C@H](CCC(=O)O)NC(=O)C(C)(C)NC(=O)[C@H](CC1CC1)NC(=O)[C@@H](NC(=O)[C@H](Cc1ccc2ccccc2c1)NC(=O)[C@@H](N)CCCC(=O)O)C1CCC1)C(=O)N[C@@H](CCC(=O)O)C(=O)N[C@@H](CCC(=O)O)C(=O)N[C@@H](CCCNC(=N)N)C(N)=O` [peptide 14] (H-[Aad][2Nal][Gly(cBu)][Ala(cPr)][Aib]E[hPhe][Ala(cPr)][Dha]EER-NH2) the “lower binding affinity compared to peptide 18” value (MBP-16E6 [1]; substitution Leu8Hof) was 2 fold.

For `C=C(NC(=O)[C@H](CC(C)C)NC(=O)[C@H](CC(C)C)NC(=O)[C@H](CCCC(=O)O)NC(=O)C(C)(C)NC(=O)[C@H](CC1CC1)NC(=O)[C@@H](NC(=O)[C@H](Cc1ccc2ccccc2c1)NC(=O)[C@@H](N)CCCC(=O)O)C1CCCC1)C(=O)N[C@@H](CCC(=O)O)C(=O)N[C@@H](CCC(=O)O)C(=O)N[C@@H](CCCNC(=N)N)C(N)=O` [peptide 23] (H-[Aad][2Nal][Gly(cPent)][Ala(cPr)][Aib][Aad]LL[Dha]EER-NH2), the “improved affinity compared to parent reactide ELT-DHA9G” value (MBP-16E6 [1]) was 50 fold.
